Experimental findings from PMC5274716, “Phosphorylation of Staphylococcus aureus Protein-Tyrosine Kinase Affects the Function of Glucokinase and Biofilm Formation” (Iranian Biomedical Journal, 2017) are described below.

In this assay the target is T1, Phosphorylated rglkA (Staphylococcus aureus, UniProt H6UH58).
T1 construct: gene glcK; recombinant from clone glkA1, nickel-column purified (His tag implied); phosphorylated in vitro by S. aureus rBYK (tyrosine; site not determined)
Nature of the assay: coupled glucose-6-phosphate dehydrogenase assay, […] nm; Hanes-Woolf plot. The class given is biochemical. The note with it: ATP, 0.5 mM MgCl2, NADP, 60 mM Tris-HCl pH 7.5, 37 °C; enzyme phosphorylated by BYK.

Broadly, the Km is the substrate concentration at which the rate is half of its maximum.

T1 sequence (H6UH58 entry or part of it): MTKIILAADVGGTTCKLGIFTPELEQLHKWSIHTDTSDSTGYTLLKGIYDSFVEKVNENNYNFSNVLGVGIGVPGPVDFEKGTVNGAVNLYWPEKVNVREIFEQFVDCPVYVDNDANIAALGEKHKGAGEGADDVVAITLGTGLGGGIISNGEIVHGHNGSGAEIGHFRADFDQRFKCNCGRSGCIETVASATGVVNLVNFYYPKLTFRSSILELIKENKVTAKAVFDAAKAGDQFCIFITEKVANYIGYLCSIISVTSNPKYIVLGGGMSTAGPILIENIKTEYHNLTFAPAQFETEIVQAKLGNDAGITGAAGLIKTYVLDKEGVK

As for `OC[C@H]1OC(O)[C@H](O)[C@@H](O)[C@@H]1O` (stereo partly shown) [glucose], the Km came out at 5.18 ± 0.5 mM.
